According to patent US8569229B2, “Compositions and methods which modulate G-protein signaling for the treatment of inflammatory disorders such as asthma and allergic conjunctivitis” (The Children's Hospital of Philadelphia, priority 2008, dated 2013):
“And” between values parts separate entries of the source, which are not always exact repeats. Equal values may be shown once. “Also recorded” adds a separate entry of the source. Read-outs that look alike come from different tables or passages of the source.

Legend:
[1] = system: human ASM cells; test: Assay of cAMP PDE activity in ASM cell lysates; format: cell-based
Procedure: Assay of cAMP PDE activity: Levels of cAMP PDE activity were assayed in ASM cell lysates using a colorimetric, non-radioactive enzymatic assay kit from Biomol, as per the manufacture's protocol. PDE activity was determined following exposure of ASM cells for 24 hr to either vehicle alone (control), PGE2 (100 μM), or forskolin (100 μM) in the absence and presence of pretreatment with rolipram (10 μM), cycloheximide (100 μM), actinomycin D (4 μM), or H89 (10 μM).
In each case, the measured levels of PDE activity were standardized to the protein content in the cell extracts.

[2] = system: PDE4D5 mRNA; test: Detection of PDE4D5 mRNA transcripts by RT-PCR in ASM cells; format: cell-based, human
Text: (§1) Detection of PDE4D5 mRNA transcripts: Total RNA was extracted from the cultured ASM cells using the TRIzol method (Invitrogen), and cDNAs were isolated by RT-PCR using the SuperScript First Strand Synthesis System kit from Invitrogen, with the following oligonucleotide primer sets (Integrated DNA Technologies): for PDE4D5, 5′-[…]-3′ (forward; SEQ ID NO: 2) and 5′-[…]-3′ (reverse; SEQ ID NO: 3); and for β-actin, 5′-[…]-3′ (forward; SEQ ID NO: 4) and 5′-[…]-3′ (reverse; SEQ ID NO: 5). The reaction volume was 20 μl and cycling conditions used were 35 cycles of 30 sec denaturation at 95° C., followed by 30 sec annealing at 60° C. and elongation at 72° C. for 30 sec. Ex-Tag (Takara Biotechnology) was used as DNA polymerase. […] Following protein extraction and the addition of gel-loading buffer, the extracts were loaded on a 10% SDS-PAGE gel for immunoblotting after transfer to a PVDF membrane. The membranes were then incubated overnight with monoclonal mouse anti-human primary antibodies directed against phospho-CREB and -ATF1, phospho-ERK1/2, or α-actin, and levels were detected by ECL after a 1-hr incubation with a 1:2,000 dilution of HRP-conjugated rabbit anti-mouse secondary antibody, followed by exposure to autoradiography film. The protein band intensities were quantified by densitometry. siRNA-mediated knockdown of PKA: ASM cells were seeded into 6-well plates and, at ˜40% confluency, the medium was replaced with the reduced serum-containing medium, Opti-MEM (Invitrogen). The cells were then transfected twice during a 24-hr interval with two pools of three siRNA duplexes, each pool targeted against the human PKAα or PKAγ catalytic subunits (Santa Cruz Biotechnology; sc-36240 and sc-36236, respectively), or with a non-targeted control (scrambled) siRNA duplex, using Oligofectamine (Invitrogen) as the transfection agent. The pools of siRNAs were applied to each well at a final concentration of 100 nM for each siRNA preparation. […] Transfection of ASM cells with adeno-βARK-ct: Adenovirus (adeno)-βARK-ct, an adenovirus vector encoding the βARK1 carboxyl-terminal domain which blocks Gβγ signaling (25,26), and adeno-β-gal, an adenovirus vector expressing lacZ as a negative control, were constructed using the AdenoX adenovirus construction kit (BD-Clontech). Recombinant plaques were isolated and propagated in HEK293 cells (Invitrogen), with viral purification using the cesium chloride gradient method, and viral titer detected by plaque assay. The ASM cells were transfected with either of the adenoviral vectors at a multiplicity of infection (MOI) of 100, and experiments were conducted at 24 hr following adenoviral tranfections. Pharmacodynamic studies of constrictor and relaxation responsiveness in rabbit ASM tissues: Following initial sedation and subsequent general anesthesia with intramuscular injections of xylazine (10 mg/kg) and ketamine (50 mg/kg), respectively, rabbits were sacrificed with an intravenously administered overdose of sodium pentobarbital (100 mg/kg). As described previously (16), the tracheae were excised via open thoracotomy, the loose connective tissue and epithelium were scraped and removed, and the tracheae were divided into 8 ring segments, each of 6-8 mm in length. […] After these incubations, the tissues were placed in organ baths containing modified Krebs-Ringer solution aerated with 5% CO2 in oxygen (pH of 7.35-7.40), and attached to force transducers to continuously monitor isometric tension. […] The constrictor and relaxation dose-response curves were analyzed with respect to each tissue's maximal isometric contractile force (Tmax) to ACh and maximal relaxation response (Rmax) to isoproterenol from the initial level of active cholinergic contraction. Statistical analyses: Results are expressed as mean±SE values. Comparisons between groups were made using the Student's t-test (two-tailed) or ANOVA with Tukey's post-test analysis, where appropriate.

[3] = system: CREB/ATF1; test: Immunoblot analysis of CREB/ATF1 phosphorylation in ASM cells; format: cell-based, human
Text: as §1

[4] = system: ERK1/2; test: Immunoblot analysis of ERK1/2 phosphorylation in ASM cells; format: cell-based, human
Text: as §1

[5] = system: rabbit ASM tissues; test: Constrictor responsiveness to acetylcholine (ACh) in isolated rabbit ASM tissues, isometric tension in organ bath
Text: as §1

[6] = system: rabbit ASM tissues; test: Relaxation responsiveness to isoproterenol in isolated rabbit ASM tissues half-maximally contracted with ACh
Text: as §1

[7] = system: human ASM cells; test: Assay of cAMP accumulation in cultured human ASM cells; format: cell-based; conditions: rolipram 10 μM
Text: Animals: Adult New Zealand White rabbits were used in this study, which was approved by the Biosafety and Animal Research Committee of the Joseph Stokes Research Institute at Children's Hospital of Philadelphia. The animals had no signs of respiratory disease for several weeks before the study, and their care and use were in accordance with the “Guide for the Care and Use of Laboratory Animals” prepared by the Institute of Laboratory Animal Resources, National Research Council. Culture and treatment of ASM cells: The human ASM cells were grown in SmBm media supplemented with 10% FBS (BioWhittaker) and maintained throughout in a humidified incubator containing 5% CO2 in air at 37° C. The experimental protocols involved growing the cells to ˜95% confluence in the above medium. […] Assay of cAMP accumulation: In initial studies, intracellular cAMP levels were determined in near confluent ASM cell cultures at varying times following treatment of ASM cells with varying concentrations of isoproterenol (0.1 to 100 μM). […]
Thereafter, in the continued presence of these treatments, cells were exposed for 5 min to isoproterenol (10 μM) at 37° C., and intracellular cAMP concentrations were determined per manufacturer's protocols using a direct cAMP Enzyme Immunoassay Kit (R&D Systems, Minneapolis, Minn.). In both cases, the cAMP measurements were expressed in units of picomoles/milligram protein.

[8] = system: human ASM cells; test: Assay of cAMP PDE activity in ASM cell lysates; format: cell-based; remark: listed apart in the source
[9] = PGE2 100 nM, isoproterenol 10 μM
[10] = forskolin 100 μM x 24 hr, data not shown
[11] = vehicle-exposed control tissues
[12] = PGE2 or forskolin x 24 hr (100 μM in text, 100 nM in legends)
[13] = salmeterol or isoproterenol 10 μM x 24 hr

CC(C)NCC(O)c1ccc(O)c(O)c1 (centres unmarked) [isoproterenol]
cAMP PDE (PDE4) activity relative to vehicle-treated control cells ([1]; cells exposed 24 hr to the agent): significantly increased
PDE activity, fold above control ([1]; cells incubated 24 hr with the agent (PGE2 or forskolin 100 μM; salmeterol or isoproterenol 10 μM)): ~2 fold
time of peak PDE4D5 mRNA induction ([2]; PGE2 100 nM, salmeterol or isoproterenol 10 μM): 6 h
peak PDE4D5 mRNA expression, fold above unstimulated cells ([2]; densitometric analysis, 3 experiments, PGE2 100 nM, salmeterol or isoproterenol 10 μM): 5.7 fold
phosphorylation of CREB and ATF1 in cells treated with the agent [3, 9]: transiently increased phosphorylation
time of peak CREB/ATF1 phosphorylation [3, 9]: 30 min
time of peak ERK1/2 phosphorylation ([4]; PGE2 100 nM, isoproterenol or salmeterol 10 μM): 20 min
ERK1/2 phosphorylation in cells treated with the agent ([4]; PGE2 or forskolin 100 nM, isoproterenol or salmeterol 10 μM): increased phosphorylation of ERK1/2; also recorded: enhanced ERK1/2 phosphorylation
increase in ERK1/2 phosphorylation, fold above control (vehicle-treated) cells ([4]; densitometric ratios, mean±SE, PGE2 30 min, isoproterenol 20 min): 2.30±0.18 fold and 2.3 fold

COc1ccc(C2CNC(=O)C2)cc1OC1CCCC1 (centres unmarked) [rolipram]
effect of pretreatment on PGE2-induced increase in constrictor responsiveness to ACh ([5]; PGE2 100 nM x 24 hr): completely abrogated; also recorded: prevents
effect of pretreatment on forskolin-induced increase in constrictor responsiveness to ACh [5, 10]: completely abrogated
effect of pretreatment on salmeterol-induced increase in constrictor responsiveness to ACh ([5]; salmeterol 10 μM x 24 hr): completely abrogated; also recorded: prevents
effect of the agent alone on constrictor responses to ACh [5, 11]: only modestly decreased constrictor responses; also recorded: did not exhibit any significant changes; also recorded: no significant effect
effect of pretreatment on PGE2-induced impaired relaxation to isoproterenol ([6]; PGE2 100 nM x 24 hr): completely ablated; also recorded: prevents
effect of pretreatment on forskolin-induced impaired relaxation to isoproterenol [6, 10]: completely abrogated
effect of pretreatment on salmeterol-induced impaired relaxation to isoproterenol ([6]; salmeterol 10 μM x 24 hr): completely ablated; also recorded: prevents
isoproterenol-induced cAMP response in PGE2-exposed cells pretreated with the agent ([7]; PGE2 100 nM x 24 hr): preserved; also recorded: unaltered
isoproterenol-induced cAMP accumulation in cells pretreated with the agent ([7]; isoproterenol 1.0 μM, 5 min): increased isoproterenol-induced cAMP accumulation; also recorded: slightly increased
isoproterenol-induced cAMP response in salmeterol-exposed cells co-treated with the agent ([7]; salmeterol 10 μM x 24 hr): largely preserved; also recorded: unaltered
effect of pretreatment on PGE2- and forskolin-induced increases in PDE activity [8, 12]: completely abrogated; also recorded: ablated
effect of pretreatment on salmeterol- and isoproterenol-induced increase in PDE activity [8, 13]: completely abrogated; also recorded: ablated

pertussis toxin [PTX]
effect of pretreatment on PGE2-induced increase in constrictor responsiveness to ACh ([5]; PGE2 100 nM x 24 hr): abrogated
effect of the agent alone on constrictor responses to ACh [5, 11]: no significant effect
effect of pretreatment on PGE2-induced impaired relaxation to isoproterenol ([6]; PGE2 100 nM x 24 hr): abrogated
effect of the agent alone on relaxation responses to isoproterenol [6, 11]: no significant effect
effect of pretreatment on PGE2-induced upregulated PDE4D5 mRNA expression ([2]; PGE2 100 nM, 6 hr): markedly inhibited; also recorded: ablated
effect of pretreatment on β2AR agonist (isoproterenol)-induced upregulated PDE4D5 mRNA expression ([2]; isoproterenol 10 μM, 6 hr): prevented; also recorded: ablated
effect on PGE2-induced phosphorylation of CREB/ATF1 ([3]; PGE2 100 nM, 30 min): largely prevented; also recorded: ablated
effect on PGE2-induced phosphorylation of ERK1/2 ([4]; PGE2 100 nM, 30 min): largely prevented; also recorded: ablated
effect of pretreatment on PGE2-induced increase in PDE activity ([8]; PGE2 100 nM x 24 hr, peptides 30 μM (Example III)): completely ablated
effect of pretreatment on PGE2- and forskolin-induced increases in PDE activity [8, 12]: completely ablated
effect of pretreatment on salmeterol- and isoproterenol-induced increase in PDE activity [8, 13]: completely abrogated; also recorded: ablated

N#CC(=C(/N)Sc1ccccc1N)/C(C#N)=C(\N)Sc1ccccc1N [U0126]
effect of pretreatment on PGE2-induced increase in constrictor responsiveness to ACh [5]: abrogated
effect of pretreatment on salmeterol-induced increase in constrictor responsiveness to ACh [5]: completely abrogated; also recorded: prevents
effect of the agent alone on constrictor responses to ACh [5]: no significant effect; also recorded: did not exhibit any significant changes
effect of pretreatment on PGE2-induced impaired relaxation to isoproterenol [6]: abrogated
effect of pretreatment on salmeterol-induced impaired relaxation to isoproterenol [6]: completely ablated; also recorded: prevents
effect of the agent alone on relaxation responses to isoproterenol [6]: no significant effect; also recorded: did not exhibit any significant changes
effect of pretreatment on PGE2-induced upregulated PDE4D5 mRNA expression [2]: largely prevented; also recorded: ablated
effect of pretreatment on β2AR agonist (isoproterenol)-induced upregulated PDE4D5 mRNA expression [2]: largely prevented; also recorded: ablated
effect on PGE2-induced phosphorylation of CREB/ATF1 [3]: abrogated; also recorded: ablated
effect on PGE2-induced phosphorylation of ERK1/2 [4]: completely abrogated; also recorded: ablated
effect on isoproterenol (β2AR agonist)-induced phosphorylation of ERK1/2 [4]: ablated
effect of pretreatment on PGE2- and forskolin-induced increases in PDE activity [8]: completely ablated
effect of pretreatment on salmeterol- and isoproterenol-induced increase in PDE activity [8]: prevented; also recorded: ablated
effect of the agent alone on basal PDE activity [8]: neither H89 nor U0126 alone had a significant effect

O=S(=O)(NCCNC/C=C/c1ccc(Br)cc1)c1cccc2cnccc12 [H89]
effect of pretreatment on PGE2-induced increase in constrictor responsiveness to ACh ([5]; PGE2 100 nM x 24 hr): abrogated
effect of pretreatment on salmeterol-induced increase in constrictor responsiveness to ACh ([5]; salmeterol 10 μM x 24 hr): completely abrogated; also recorded: prevents
effect of the agent alone on constrictor responses to ACh [5, 11]: no significant effect; also recorded: did not exhibit any significant changes
effect of pretreatment on PGE2-induced impaired relaxation to isoproterenol ([6]; PGE2 100 nM x 24 hr): abrogated
effect of pretreatment on salmeterol-induced impaired relaxation to isoproterenol ([6]; salmeterol 10 μM x 24 hr): completely ablated; also recorded: prevents
effect of the agent alone on relaxation responses to isoproterenol [6, 11]: no significant effect; also recorded: did not exhibit any significant changes
effect of the agent alone on basal PDE activity ([1]; no cAMP-elevating agent): no significant change; also recorded: neither H89 nor U0126 alone had a significant effect
effect of pretreatment on PGE2-induced upregulated PDE4D5 mRNA expression ([2]; PGE2 100 nM, 6 hr): largely prevented; also recorded: ablated
effect of pretreatment on β2AR agonist (isoproterenol)-induced upregulated PDE4D5 mRNA expression ([2]; isoproterenol 10 μM, 6 hr): largely prevented; also recorded: ablated
effect on PGE2-induced phosphorylation of CREB/ATF1 ([3]; PGE2 100 nM, 30 min): abrogated; also recorded: ablated
effect on PGE2-induced phosphorylation of ERK1/2 ([4]; PGE2 100 nM, 30 min): abrogated; also recorded: ablated
effect of pretreatment on PGE2- and forskolin-induced increases in PDE activity [8, 12]: abrogated; also recorded: ablated
effect of pretreatment on salmeterol- and isoproterenol-induced increase in PDE activity [8, 13]: prevented; also recorded: ablated
